Series [1] is classed as physicochemical. On the procedure:
Hereinafter, unless specified otherwise, the solubility of a material is determined in reverse osmosis water at room temperature. […] The obtained powder was loaded into a 1000 L rotary vacuum dryer and dried at 105° C. at 10 mbar pressure for 3 hours. After 3 hours, preheated nitrogen at 100° C. was introduced into the vacuum chamber till ambient pressure was reached. Upon reaching ambient pressure, the vacuum dryer was connected to a vent and the nitrogen flow was continued at 100 L/min for a 4-hour time period. […] A sample of the powder was withdrawn from the dryer and the solubility tested in deionized water at room temperature.

For series [2] the following is noted: standard sweetening power, Saccharose = 1; cited from earlier work.
For series [3] the following is noted: cited from earlier work.
The conditions of series [4]: cited from earlier work; for solubility: known Rebaudioside A forms, g soluble in 100 g solvent.

Read-outs that look alike come from different tables or passages of the source. Where a SMILES comes first, the peptide text is derived from it.

`C=C1C[C@@]23CC[C@H]4[C@@](C)(CCC[C@@]4(C)C(=O)O[C@@H]4O[C@H](CO)[C@@H](O)[C@H](O)[C@H]4O)[C@@H]2CC[C@]1(O[C@@H]1O[C@H](CO)[C@@H](O)[C@H](O[C@@H]2O[C@H](CO)[C@@H](O)[C@H](O)[C@H]2O)[C@H]1O[C@@H]1O[C@H](CO)[C@@H](O)[C@H](O)[C@H]1O)C3` [high solubility Rebaudioside A powder, Rebaudioside A]: in series [1] (deionized water at room temperature), the dissolution time is 7 min.

For `O=C1NS(=O)(=O)c2ccccc21` [Saccharine], the Sweetness power in series [2] is reported as 300.

For the molecule `C=C1C[C@@]23CC[C@H]4[C@@](C)(CCC[C@@]4(C)C(=O)O[C@@H]4O[C@H](CO)[C@@H](O)[C@H](O)[C@H]4O)[C@@H]2CC[C@]1(O[C@@H]1O[C@H](CO)[C@@H](O)[C@H](O)[C@H]1O[C@@H]1O[C@H](CO)[C@@H](O)[C@H](O)[C@H]1O)C3` [Stevioside], in series [2], the Sweetness power is on record as 200.

Turning to `COC(=O)[C@H](Cc1ccccc1)NC(=O)[C@@H](N)CC(=O)O` [Aspartame] (H-Asp-Phe-OMe), the Sweetness power in series [2] is 200.

On to `C=C1C[C@@]23CC[C@H]4[C@@](C)(CCC[C@@]4(C)C(=O)O[C@@H]4O[C@H](CO)[C@@H](O)[C@H](O)[C@H]4O)[C@@H]2CC[C@]1(O[C@@H]1O[C@H](CO)[C@@H](O)[C@H](O[C@@H]2O[C@H](CO)[C@@H](O)[C@H](O)[C@H]2O)[C@H]1O[C@@H]1O[C@H](CO)[C@@H](O)[C@H](O)[C@H]1O)C3` [Form 4, Rebaudioside A], for which the entries for the “Rate of dissolution in H2O at 25° C.” value in series [3] (grade in words) and in series [3] (in 5 minutes) were “High” and “(>35% in”, respectively. In addition, in series [4] (listed as amorphous form), the solubility entry is “greater than 35%”.

In the case of `CC1(C)[C@@H](O[C@H]2O[C@H](C(=O)O)[C@@H](O)[C@H](O)[C@H]2O[C@@H]2O[C@H](C(=O)O)[C@@H](O)[C@H](O)[C@H]2O)CC[C@]2(C)[C@H]3C(=O)C=C4[C@@H]5C[C@@](C)(C(=O)O)CC[C@]5(C)CC[C@@]4(C)[C@]3(C)CC[C@@H]12` [Glycyrrhizin], in series [2], the Sweetness power is reported as 50.

Regarding `OC[C@H]1O[C@@](CO)(O[C@H]2O[C@H](CO)[C@@H](O)[C@H](O)[C@H]2O)[C@@H](O)[C@@H]1O` [Saccharose], the Sweetness power in series [2] is 1.

Turning to `C=C1C[C@@]23CC[C@H]4[C@@](C)(CCC[C@@]4(C)C(=O)O[C@@H]4O[C@H](CO)[C@@H](O)[C@H](O)[C@H]4O)[C@@H]2CC[C@]1(O[C@@H]1O[C@H](CO)[C@@H](O)[C@H](O[C@@H]2O[C@H](CO)[C@@H](O)[C@H](O)[C@H]2O)[C@H]1O[C@@H]1O[C@H](CO)[C@@H](O)[C@H](O)[C@H]1O)C3` [Form 2, Rebaudioside A], the “Rate of dissolution in H2O at 25° C.” value in series [3] (grade in words) was “Intermediate”; in series [3] (in 5 minutes) it was “(<30% in 5”. Besides, the solubility entry in series [4] (listed as anhydrous form of Rebaudioside A) and in series [4] (listed as anhydrous form) was “up to 30%” each time.

Thaumatin: the Sweetness power in series [2] is on record as 3000.

In turn, `C=C1C[C@@]23CC[C@H]4[C@@](C)(CCC[C@@]4(C)C(=O)O[C@@H]4O[C@H](CO)[C@@H](O)[C@H](O)[C@H]4O)[C@@H]2CC[C@]1(O[C@@H]1O[C@H](CO)[C@@H](O)[C@H](O[C@@H]2O[C@H](CO)[C@@H](O)[C@H](O)[C@H]2O)[C@H]1O[C@@H]1O[C@H](CO)[C@@H](O)[C@H](O)[C@H]1O)C3` [Rebaudioside A] displayed a solubility in series [1] of 1.6%. The Sweetness power in series [2] is listed as 450.

Take `COc1ccc(CCC(=O)c2c(O)cc(O[C@@H]3O[C@H](CO)[C@@H](O)[C@H](O)[C@H]3O[C@@H]3O[C@@H](C)[C@H](O)[C@@H](O)[C@H]3O)cc2O)cc1O` [NHDC, neohesperidin dihydrochalcone]: the Sweetness power in series [2] was 1000.

On to `OC[C@H]1O[C@H](O[C@]2(CCl)O[C@H](CCl)[C@@H](O)[C@@H]2O)[C@H](O)[C@@H](O)[C@H]1Cl` [Sucralose], for which the Sweetness power in series [2] was 600.

`C[C@@H](NC(=O)[C@@H](N)CC(=O)O)C(=O)NC1C(C)(C)SC1(C)C` [Alitame]: in series [2], the Sweetness power was 2000.

With `CC1=CC(=O)NS(=O)(=O)O1` [Acesulfame-K], the Sweetness power in series [2] is on record as 200.

Regarding `C=C1C[C@@]23CC[C@H]4[C@@](C)(CCC[C@@]4(C)C(=O)O[C@@H]4O[C@H](CO)[C@@H](O)[C@H](O)[C@H]4O)[C@@H]2CC[C@]1(O[C@@H]1O[C@H](CO)[C@@H](O)[C@H](O[C@@H]2O[C@H](CO)[C@@H](O)[C@H](O)[C@H]2O)[C@H]1O[C@@H]1O[C@H](CO)[C@@H](O)[C@H](O)[C@H]1O)C3` [Form 1, Rebaudioside A], the “Rate of dissolution in H2O at 25° C.” value is listed as “Very low” in series [3] (grade in words) and “(<0.2% in” in series [3] (in 60 minutes). Also, the “solubility (in words)” value in series [4] (compared among Rebaudioside A forms) was “lowest solubility”. Also, the solubility result in series [4] (listed as hydrate form) was “less than 0.2%”.

For the molecule `C=C1C[C@@]23CC[C@H]4[C@@](C)(CCC[C@@]4(C)C(=O)O[C@@H]4O[C@H](CO)[C@@H](O)[C@H](O)[C@H]4O)[C@@H]2CC[C@]1(O[C@@H]1O[C@H](CO)[C@@H](O)[C@H](O[C@@H]2O[C@H](CO)[C@@H](O)[C@H](O)[C@H]2O)[C@H]1O[C@@H]1O[C@H](CO)[C@@H](O)[C@H](O)[C@H]1O)C3` [Form 3, Rebaudioside A], the “Rate of dissolution in H2O at 25° C.” value in series [3] (grade in words) is listed as “High”; in series [3] (in 5 minutes) it was “(>30% in”. Further, the solubility result in series [4] (listed as solvate form) was “greater than 30%”.

Source of the values: patent US10888099B2, “Granulation of a Stevia sweetener” (PureCircle Sdn Bhd, priority 2009, dated 2021).
